Results taken from patent US11046699B2, “Pyrazolo-pyrimidin-amino-cycloalkyl compounds and their therapeutic uses” (RAPT THERAPEUTICS, INC., priority 2018, dated 2021).

The compounds below were run against GCN2 (Homo sapiens, UniProt Q9P2K8) (assay: GCN2 enzymatic endpoint assay: phosphorylation of GFP-eIF2α measured by TR-FRET (Lanthascreen)). Details: GCN2 biochemical IC50; 4 nM GCN2, 2 μM ATP, 80 nM GFP-eIF2α, 90 min RT; read-out: GCN2 activity.
Type: biochemical
In short: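 2 μM ATP, 80 nM GFP-eIF2α, RT, 90 min; EDTA stop. Tb-anti-phospho antibody TR-FRET read, 520/495 nm ratio.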

Chain of GCN2 (Q9P2K8 whole entry): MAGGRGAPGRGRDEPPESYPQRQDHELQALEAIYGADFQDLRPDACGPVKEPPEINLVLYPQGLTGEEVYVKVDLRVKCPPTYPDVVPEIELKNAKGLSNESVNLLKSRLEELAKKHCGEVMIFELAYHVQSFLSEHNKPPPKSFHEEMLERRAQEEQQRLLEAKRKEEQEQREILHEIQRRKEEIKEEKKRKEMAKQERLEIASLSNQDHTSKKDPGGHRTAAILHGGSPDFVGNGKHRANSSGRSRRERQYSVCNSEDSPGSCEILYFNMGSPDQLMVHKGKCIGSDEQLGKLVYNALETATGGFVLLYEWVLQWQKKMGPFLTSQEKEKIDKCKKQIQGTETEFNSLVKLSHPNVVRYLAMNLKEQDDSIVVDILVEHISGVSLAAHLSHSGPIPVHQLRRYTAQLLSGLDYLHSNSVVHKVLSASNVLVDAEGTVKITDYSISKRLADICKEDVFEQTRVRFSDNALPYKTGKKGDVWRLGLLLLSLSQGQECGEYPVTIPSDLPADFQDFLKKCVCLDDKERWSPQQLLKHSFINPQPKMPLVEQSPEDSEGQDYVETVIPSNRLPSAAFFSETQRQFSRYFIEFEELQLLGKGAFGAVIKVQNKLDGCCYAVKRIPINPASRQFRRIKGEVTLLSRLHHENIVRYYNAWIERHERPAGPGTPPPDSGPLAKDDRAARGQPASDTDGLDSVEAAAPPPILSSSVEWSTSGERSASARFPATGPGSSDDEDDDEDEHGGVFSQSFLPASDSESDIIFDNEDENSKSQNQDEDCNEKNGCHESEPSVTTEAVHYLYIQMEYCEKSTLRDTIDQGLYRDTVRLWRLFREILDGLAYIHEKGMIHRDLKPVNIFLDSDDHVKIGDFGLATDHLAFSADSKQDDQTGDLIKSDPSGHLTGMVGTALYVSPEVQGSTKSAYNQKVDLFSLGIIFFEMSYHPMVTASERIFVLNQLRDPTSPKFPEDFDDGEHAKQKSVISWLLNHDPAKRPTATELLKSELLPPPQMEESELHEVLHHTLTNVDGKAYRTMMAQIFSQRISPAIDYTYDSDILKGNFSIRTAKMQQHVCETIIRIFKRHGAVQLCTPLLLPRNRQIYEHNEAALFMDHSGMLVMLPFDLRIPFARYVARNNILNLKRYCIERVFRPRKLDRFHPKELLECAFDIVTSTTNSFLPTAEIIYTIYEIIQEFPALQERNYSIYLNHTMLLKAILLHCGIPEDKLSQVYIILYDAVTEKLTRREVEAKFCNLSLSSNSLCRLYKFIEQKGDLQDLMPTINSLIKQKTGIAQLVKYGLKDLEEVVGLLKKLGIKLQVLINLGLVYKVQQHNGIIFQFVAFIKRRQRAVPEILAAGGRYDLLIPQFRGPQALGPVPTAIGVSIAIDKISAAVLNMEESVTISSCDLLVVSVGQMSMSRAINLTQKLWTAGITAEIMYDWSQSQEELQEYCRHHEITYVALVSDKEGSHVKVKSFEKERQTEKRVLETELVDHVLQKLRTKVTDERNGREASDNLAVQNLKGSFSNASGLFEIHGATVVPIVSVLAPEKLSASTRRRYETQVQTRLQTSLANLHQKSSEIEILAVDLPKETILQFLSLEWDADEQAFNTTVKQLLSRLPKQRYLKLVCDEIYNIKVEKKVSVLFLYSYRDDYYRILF

SMILES	IC50 [nM]
CNC(=O)[C@]1(C)CC[C@@H](Nc2ncc3c(Br)nn(-c4ccc(-c5nnc(C)s5)cc4)c3n2)C1 [Example 38, (1R,3R)-3-((3-bromo-1-(4-(5-methyl-1,3,4-thiadiazol-2-yl)phenyl)-1H-pyrazolo[3,4-d]pyrimidin-6-yl)amino)-N,1-dimethylcyclopentane-1-carboxamide]	< 25

Same assay, conditions: tested as described in Example 77; compound and/or hydrochloride, dihydrochloride or trifluoroacetic acid salt; read-out: IC 50 Activity

SMILES	IC50 [nM]
Fc1cc(-n2nc(Br)c3cnc(NC4COC4)nc32)cc2cccnc12 [3-bromo-1-(8-fluoro-6-quinolyl)-N-(oxetan-3-yl)pyrazolo[3,4-d]pyrimidin-6-amine]	25 to 200
Cc1nnc(-c2ccc(-n3nc(Br)c4cnc(N[C@@H]5CC[C@@](C)(C(=O)O)C5)nc43)cc2CCN)s1 [(1R,3R)-3-[[1-[3-(2-aminoethyl)-4-(5-methyl-1,3,4-thiadiazol-2-yl)phenyl]-3-bromo-pyrazolo[3,4-d]pyrimidin-6-yl]amino]-1-methyl-cyclopentanecarboxylic acid]	25 to 200
CNC(=O)[C@]1(C)CC[C@@H](Nc2ncc3c(Br)nn(-c4cc(C(C)CO)c5ncccc5c4)c3n2)C1 (stereo partly drawn) [(1R,3R)-3-[[3-bromo-1-[8-(2-hydroxy-1-methyl-ethyl)-6-quinolyl]pyrazolo[3,4-d]pyrimidin-6-yl]amino]-N,1-dimethyl-cyclopentanecarboxamide]	< 25
CNC(=O)[C@@]1(C)CC[C@@H](Nc2ncc3c(Br)nn(-c4ccc5nccnc5c4)c3n2)C1 [(1S,3R)-3-((3-bromo-1-(quinoxalin-6-yl)-1H-pyrazolo[3,4-d]pyrimidin-6-yl)amino)-N,1-dimethylcyclopentane-1-carboxamide]	500 to 1000
CNC(=O)[C@]1(C)CC[C@@H](Nc2ncc3c(Br)nn(-c4ccc(-n5ccnc5)cc4)c3n2)C1 [(1R,3R)-3-[[3-bromo-1-(4-imidazol-1-ylphenyl)pyrazolo[3,4-d]pyrimidin-6-yl]amino]-N,1-dimethyl-cyclo-pentanecarboxamide]	25 to 200
CNC(=O)[C@]1(C)CC[C@@H](Nc2ncc3c(Br)nn(-c4ccc(-c5nnc(C(C)O)o5)cc4)c3n2)C1 (stereo partly drawn) [(1R,3R)-3-[[3-bromo-1-[4-[5-(1-hydroxy-ethyl)-1,3,4-oxadiazol-2-yl]phenyl]pyrazolo [3,4-d]pyrimidin-6-yl]amino]-N,1-dimethyl-cyclopentanecarboxamide]	25 to 200
CNC(=O)[C@]1(C)CC[C@@H](Nc2ncc3c(Br)nn(-c4cc(CN5C(=O)CNC5=O)c5ncccc5c4)c3n2)C1 [(1R,3R)-3-[[3-bromo-1-[8-[(2,5-dioxo-imidazolidin-1-yl)methyl]-6-quinolyl]pyrazolo[3,4-d]pyrimidin-6-yl]amino]-N,1-dimethyl-cyclopentanecarboxamide]	25 to 200
O=C(N[C@@H]1CCOC1)[C@@H]1CC[C@@H](Nc2ncc3c(Br)nn(-c4cc(Cl)c5ncccc5c4)c3n2)C1 [(1R,3R)-3-((3-bromo-1-(8-chloroquinolin-6-yl)-1H-pyrazolo[3,4-d]pyrimidin-6-yl)amino)-N-((R)-tetrahydrofuran-3-yl)cyclopentane-1-carboxamide]	< 25
